From article PMC2756456 (Clinical cancer research : an official journal of the …, 2009)

Target: myosin light chain kinase (MLCK) (Homo sapiens, UniProt Q15746)
Test: radiometric [γ-33P]ATP kinase assay with peptide substrate KKLNRTLSFAEPG
Assay type: biochemical

Sequence of myosin light chain kinase (MLCK) (Q15746 whole entry): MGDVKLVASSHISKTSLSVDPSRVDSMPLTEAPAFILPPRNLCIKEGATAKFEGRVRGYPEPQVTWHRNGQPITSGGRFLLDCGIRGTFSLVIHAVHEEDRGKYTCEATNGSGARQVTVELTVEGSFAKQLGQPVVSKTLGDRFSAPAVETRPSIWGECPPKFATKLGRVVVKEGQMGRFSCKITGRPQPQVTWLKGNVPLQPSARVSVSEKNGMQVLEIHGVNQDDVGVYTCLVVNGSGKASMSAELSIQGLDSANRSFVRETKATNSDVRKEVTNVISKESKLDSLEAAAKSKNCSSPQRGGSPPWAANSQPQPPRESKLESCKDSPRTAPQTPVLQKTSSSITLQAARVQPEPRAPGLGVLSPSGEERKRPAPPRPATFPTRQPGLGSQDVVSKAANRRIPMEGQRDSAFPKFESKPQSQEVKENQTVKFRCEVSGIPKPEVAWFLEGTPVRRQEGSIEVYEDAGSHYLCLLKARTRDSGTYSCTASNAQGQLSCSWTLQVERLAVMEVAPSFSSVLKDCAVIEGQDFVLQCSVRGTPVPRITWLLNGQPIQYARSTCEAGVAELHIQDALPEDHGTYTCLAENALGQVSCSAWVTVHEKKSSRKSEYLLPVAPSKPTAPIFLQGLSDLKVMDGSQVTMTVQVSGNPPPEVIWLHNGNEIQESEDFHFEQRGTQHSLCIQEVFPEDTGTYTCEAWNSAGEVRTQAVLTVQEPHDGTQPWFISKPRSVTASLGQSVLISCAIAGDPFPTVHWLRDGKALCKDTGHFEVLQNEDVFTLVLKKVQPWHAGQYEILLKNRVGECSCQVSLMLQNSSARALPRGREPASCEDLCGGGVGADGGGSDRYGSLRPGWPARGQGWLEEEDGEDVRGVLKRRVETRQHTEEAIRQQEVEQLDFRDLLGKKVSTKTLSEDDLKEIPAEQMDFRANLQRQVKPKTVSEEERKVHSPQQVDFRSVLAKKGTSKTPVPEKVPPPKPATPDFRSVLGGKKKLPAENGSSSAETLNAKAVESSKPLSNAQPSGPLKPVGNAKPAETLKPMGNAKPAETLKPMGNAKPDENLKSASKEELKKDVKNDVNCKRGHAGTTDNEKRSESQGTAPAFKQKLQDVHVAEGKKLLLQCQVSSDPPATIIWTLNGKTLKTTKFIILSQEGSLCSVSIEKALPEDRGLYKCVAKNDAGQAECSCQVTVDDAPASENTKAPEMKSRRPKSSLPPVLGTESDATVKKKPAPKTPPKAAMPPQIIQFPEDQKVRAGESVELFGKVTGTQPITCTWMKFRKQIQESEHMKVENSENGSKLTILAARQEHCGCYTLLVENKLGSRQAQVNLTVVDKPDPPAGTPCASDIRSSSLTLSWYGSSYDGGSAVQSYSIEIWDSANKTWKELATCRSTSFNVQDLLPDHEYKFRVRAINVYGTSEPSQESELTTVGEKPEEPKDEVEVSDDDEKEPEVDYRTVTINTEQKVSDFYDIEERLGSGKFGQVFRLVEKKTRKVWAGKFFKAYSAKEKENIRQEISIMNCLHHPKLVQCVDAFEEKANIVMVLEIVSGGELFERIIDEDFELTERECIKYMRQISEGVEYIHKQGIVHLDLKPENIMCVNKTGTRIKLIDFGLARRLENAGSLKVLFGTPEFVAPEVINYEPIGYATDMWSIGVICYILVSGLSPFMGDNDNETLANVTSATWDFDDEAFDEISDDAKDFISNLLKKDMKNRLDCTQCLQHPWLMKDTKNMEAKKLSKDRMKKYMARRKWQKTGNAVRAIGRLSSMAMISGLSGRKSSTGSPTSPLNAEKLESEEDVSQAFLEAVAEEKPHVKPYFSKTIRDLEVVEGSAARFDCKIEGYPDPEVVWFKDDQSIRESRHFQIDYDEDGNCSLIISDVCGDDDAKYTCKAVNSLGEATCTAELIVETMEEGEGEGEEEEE

Q: `CNCc1ccc(-c2[nH]c3cc(F)cc4c3c2CCNC4=O)cc1` [AG014699] was tested. Which IC50 did it give?
A: Its IC50 is 55 µM.
